Results taken from US6506707B1, “Herbicidal compositions containing plant essential oils and mixtures or blends thereof” (Ecosmart Technologies, Inc., priority 1999, dated 2003).

How the values were obtained:
[1] = system: greenhouse-grown cabbage leaves; assay: Direct droplet bioassay on cabbage leaves (Examples 5 and 7); type: in vivo; settings: applied in one microliter of methanol; for EC50 (amount producing 50% of maximum effect): cabbage leaves; for relative toxicity to cabbage leaves (ranking by EC50): individual oils
Procedure: Various plant essential oils were tested for toxicity (herbicidal action) against greenhouse-grown cabbage leaves. Individual oils were ranked for relative toxicity using the direct droplet bioassay on the cabbage leaves.
Various plant essential oils were tested for synergistic effects on the toxicity (herbicidal action) against greenhouse-grown cabbage leaves. Individual oils were ranked for relative toxicity using the direct droplet bioassay on the cabbage leaves, and compared to mixtures at different ratios. […]

[2] = system: dandelion; assay: Direct droplet bioassay on dandelion (Example 6); type: in vivo; settings: individual oils, applied in one microliter of methanol
Procedure: Various plant essential oils were tested for toxicity (herbicidal action) against dandelion. Individual oils were ranked for relative toxicity using the direct droplet bioassay on the dandelion. EC50 values (amount producing 50% of maximum effect) were recorded in micrograms (all applied in one microliter of methanol) and plotted on a graph for comparison.

Compound	EC50 (amount producing 50% of maximum effect) [1] [micrograms]	relative toxicity to dandelion (ranking by EC50) [2]	relative toxicity to cabbage leaves (ranking by EC50) [1]
C=CCc1ccc(O)c(OC)c1 [Eugenol]	46.1	–	–
CCC(=O)OCCc1ccccc1 [Phenethyl Propionate (PEP), Phenethyl Propionate]	158.8	–	–
Cc1ccc(C(C)C)c(O)c1 [Thymol]	10.7	–	–
CC12CCC(CC1)C(C)(C)O2 [cineole, Cineole]	–	most toxic	–
O=C/C=C/c1ccccc1 [cinnamic aldehyde, Cinnamic Aldehyde]	–	most toxic	most toxic
CC(C)=CCCC(C)CC=O (stereo not drawn) [citronellal, Citronellal]	–	most toxic	most toxic
COC(=O)c1ccccc1O [methyl salicylate, Methyl Salicylate]	–	most toxic	most toxic
Cc1ccc(C(C)C)c(O)c1 [white thymol, White Thymol]	–	most toxic	most toxic
